# Assay results: patent US20080014253A1, “Lipid-Based Drug Delivery Systems Containing Unnatural Phospholipase A2 Degradable Lipid Derivatives and the Therapeutic Uses Thereof” (priority 2004, published 2008)
# Entries after “also recorded” stand apart in the source; their conditions may differ.
# Tests used:
# [1] = format: physicochemical; conditions: for Main-transition Tm (peak position) / Pre-transition Tm (peak position): multilamellar liposomes, scan rate 20° C./h; for pre-transition of the lipid membrane (Cp-curves): one-component multilamellar liposomes
# Protocol: FIG. 3. Heat capacity, CP, obtained using differential scanning calorimetry at a scan rate of 20° C./h for 0.15 mM multilamellar liposomes: (A) 1-O-DPPC′ (left), DPPC (middle), and 1-O-DPPC (right). (B) 1-O-DPPG′ (left), DPPG (middle) and 1-O-DPPG (right).
# By replacing the ester linkage in the C-1 position with an ether bond, these unnatural phospholipids can furthermore be used as novel prodrug anticancer lipids to make liposomal microcarriers that can be degraded to active anticancer lysoetherlipids by PLA2 [27]. The lipid prodrug analogs (1-O-DPPC and 1-O-DPPG) were synthesized as described earlier. 1,2-dipalmitoyl-sn-glycero-3-phosphocholine (DPPC), 1,2-dipalmitoyl-sn-glycero-3-phosphoglycerol (DPPG), and 1,2-distearoyl-sn-glycero-3-phosphoethanolamine poly(ethylene glycol)2000 (DSPE-PEG2000) were purchased from Avanti Polar Lipids, AL, USA. Multi- and unilamellar liposomes were hydrated in a HEPES buffer solution (10 mM HEPES, 110 mM KCl, 1 mM NaN3, 30 μM CaCl2, 10 μM NaEDTA, pH 7.5) and prepared as described in previous work. Differential scanning calorimetry was carried out in the upscan mode at a scanrate of 20° C./h using multilamellar liposomes. The PLA2 lag time measurements on 1-O-DPPC′ unilamellar liposomes incorporated with small amounts of 1-O-DPPG′ or DSPE-PEG2000 lipids were performed in the gel-to-fluid main phase transition range and the degree of lipid hydrolysis was analyzed using HPLC techniques.
# The heat capacity (Cp) curves obtained using differential scanning calorimetry are shown in FIG. 3 for one-component 1-O-DPPC′ and 1-O-DPPG′ multilamellar liposomes. The Cp-curves show a main peak at 40.1° C. and 40.6° C. reflecting the chain disordering gel-to-fluid main phase transition of the 1-O-DPPC′ and 1-O-DPPG′ lipid membranes, respectively. […] This leads to the formation of low temperature ordered and non-corrugated gel phase (Lβ) that prevails until the unset of the main transition giving rise to a concomitant increase in the integrated melting enthalpy of the main transition (Table 1). Since the 1-O-DPPC′ and 1-O-DPPG′ lipids undergo a transition from an ordered configuration in the low temperature non-corrugated gel phase to a disordered configuration in the high temperature fluid phase without passing through the ripple phase, the integrated melting enthalpy is expected to be higher than for the natural DPPC and DPPG ripple phase forming lipids, which undergo a transition to the fluid phase from a ripple phase with a higher energy than the non-corrugated gel phase. In order to exclude the possibility that the abolished ripple transition is due to having an ether bond in the C-1 position, we have in FIG. 3 also shown Cp-curves obtained on 1-O-DPPC and 1-O-DPPG multilamellar liposomes. Clearly, these Cp-curves show the same characteristic phase behavior as the natural DPPC and DPPG lipids with a pre-transition a few degrees below the main phase transition peak underlining that it is the position of the phosphate head group in the C-3 position on the natural phospholipids that is crucial for ripple formation.
# human secretory PLA2 = molecular target: T1, human secretory PLA2 (Homo sapiens, UniProt P14555); experiment: Hydrolysis of unilamellar liposomes by human secretory PLA2 from human tear fluid; format: biochemical
# T1 construct: from tissue; host or cells: freshly prepared human tear fluid
# T1 sequence (P14555 21-144): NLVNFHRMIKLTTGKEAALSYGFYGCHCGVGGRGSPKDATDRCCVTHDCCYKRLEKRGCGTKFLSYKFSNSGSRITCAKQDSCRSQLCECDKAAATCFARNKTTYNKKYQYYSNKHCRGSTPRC
# Protocol: FIG. 4. Characteristic reaction time profiles at 40° C. for PLA2 hydrolysis of unilamellar. (A) 0.15 mM 1-O-DPPC′ liposomes incubated with 150 nM PLA2 (A. piscivorus piscivorus). (B) 0.15 mM 1-O-DPPG′ liposomes incubated with human secretory PLA2 from 20 μL freshly prepared human tear fluid (B). The PLA2 hydrolysis reaction is monitored by intrinsic fluorescence (solid line) from the enzyme and 90° static light scattering (dashed lines) from the lipid suspension. After adding PLA2 to the equilibrated liposome suspension a characteristic lag time, τ, follows before a sudden increase in the catalytic activity takes place (A).
# FIG. 6. (A) PLA2 (A. piscivorus piscivorus) hydrolysis of 1-O-DPPC′ liposomes containing 0 mol % (▪), 2 mol % (▴), and 10 mol % (∘) 1-O-DPPG′ lipids, and 5 mol % (▾) DSPE-PEG2000 polymer lipids determined by HPLC [28]. The percent lipid hydrolysis is determined 1000 s after the unset of the burst. The concentration of the liposomes was 0.15 mM and the concentration of PLA2 was 150 nM. (B) Hydrolysis of 1-O-DPPG′ unilamellar liposomes determined by HPLC [28]. The PLA2 catalyzed lipid hydrolysis is determined as a function of time after addition of 20 μL freshly prepared human tear fluid to 0.15 mM 1-O-DPPG′ liposomes. […]
Compound,Main-transition ΔHm (melting enthalpy) [1],Pre-transition ΔH (melting enthalpy) [1],Main-transition Tm (peak position) [1],Pre-transition Tm (peak position) [1],pre-transition of the lipid membrane (Cp-curves) [1],"onset of hydrolysis / lag time (human secretory PLA2; 0.15 mM liposomes, 20 μL human tear fluid, 40° C.)",activity of human secretory PLA2 towards liposomes (human secretory PLA2; liposomes formed by the lipid)
"CCCCCCCCCCCCCCCCOC[C@@H](COC(=O)CCCCCCCCCCCCCCC)OP(=O)([O-])OCC[N+](C)(C)C [1-O-DPPC′, (S)-1-O-hexadecyl-3-hexadecanoyl-glycero-2-phosphocholine]",12.8 kcal/mol,–,40.1 °C,–,abolished,–,–
"CCCCCCCCCCCCCCCC(=O)OC[C@H](COP(=O)(O)OCC(O)CO)OC(=O)CCCCCCCCCCCCCCC (stereo partly drawn) [DPPG, 1,2-dipalmitoyl-sn-glycero-3-phosphoglycerol]",9.8 kcal/mol,1.31 kcal/mol,40.6 °C,34.3 °C,–,–,–
(S)-1-O-hexadecyl-3-hexadecanoyl-glycero-2-phosphoglycerol [1-O-DPPG′],11.3 kcal/mol,–,40.6 °C,–,abolished,immediate hydrolysis; also recorded: becomes active immediately after addition,high activity; also recorded: superior substrates

# The next lines start with results.
Main-transition ΔHm (melting enthalpy) [1],Pre-transition ΔH (melting enthalpy) [1],Main-transition Tm (peak position) [1],Pre-transition Tm (peak position) [1],Compound,pre-transition of the lipid membrane (Cp-curves) [1],"onset of hydrolysis / lag time (human secretory PLA2; 0.15 mM liposomes, 20 μL human tear fluid, 40° C.)",activity of human secretory PLA2 towards liposomes (human secretory PLA2; liposomes formed by the lipid)
9.1 kcal/mol,0.58 kcal/mol,41.8 °C,34.1 °C,1-O-hexadecyl-2-hexadecanoyl-sn-glycero-3-phosphoglycerol [1-O-DPPG],–,–,–
8.5 kcal/mol,0.84 kcal/mol,42.6 °C,32.0 °C,"CCCCCCCCCCCCCCCCOC[C@H](COP(=O)([O-])OCC[N+](C)(C)C)OC(=O)CCCCCCCCCCCCCCC [1-O-DPPC, 1-O-hexadecyl-2-hexadecanoyl-sn-glycero-3-phosphocholine]",–,–,–
8.7 kcal/mol,1.2 kcal/mol,40.5 °C,31.9 °C,"CCCCCCCCCCCCCCCC(=O)OC[C@H](COP(=O)([O-])OCC[N+](C)(C)C)OC(=O)CCCCCCCCCCCCCCC [DPPC, 1,2-dipalmitoyl-sn-glycero-3-phosphocholine]",–,–,–
